{"source": "patent US6495557B1", "about": "“Condensed thienopyrimidines with phosphodiesterase-v inhibiting action” (Merck Patent Gesellschaft mit beschraenkter Haftung, priority 1998, dated 2002)"}
{"smiles": "COc1ccc(CNc2nc(CCC(=O)O)nc3sc4ccccc4c23)cc1Cl", "note": "[Example 2, 3-[4-(3-chloro-4-methoxybenzylamino)benzothieno[2,3-d]pyrimidin-2-yl]propionic acid]", "values": [{"measurement": "melting point", "value": 218, "unit": "°C"}]}
{"smiles": "COC(=O)c1ccc(-c2nc(NCc3ccc(OC)c(Cl)c3)c3c(n2)sc2ccccc23)cc1", "note": "[Example 3, methyl 4-[4-(3-chloro-4-methoxybenzylamino)-[1]benzothieno[2,3-d]pyrimidin-2-yl]benzoate]", "values": [{"measurement": "melting point", "value": "203 to 204", "unit": "°C"}]}
